According to patent US5945450A, “Naphthalene derivative” (Teijin Limited, priority 1994, dated 1999):

What was measured:
Format in all cases: cell-based
[1] = test system: human IgE antibodies; experiment: In vitro inhibition of the production of human IgE antibodies (lymphocytes + IL-4 + anti CD40Ab + IL-10, ELISA); conditions: Lymphocyte, 3 μM, read-out: Inhibition of antibody production (%) IgE
Description: (§1) According to the method described in J. Immunol., 146:1836-1842, 1991 and J. Immunol., 147:8-13, 1991, the concentrations of IgE and IgG antibodies were measured by the procedures described below.
(§2) Peripheral venous blood was sampled from the healthy person, and submitted to density-gradient centrifugation to isolate lymphocytes. The lymphocytes thus obtained were washed and suspended in a culture medium (RPMI-1640 (provided by Gibco)+10% heat-inactivated FCS (Whittaker)+100 µg/ml streptomycin+100 U/ml penicillin+2mM L-glutamine). The cell suspensions were cultured for 1 week in the presence/absence of the compounds of this invention at the concentrations as described in Tables 3-1 to 3-2 together with human interleukin 4 (IL-4, Genzyme)([…]), anti CD40 antibodies (anti CD40Ab, Biosource, clone B-B20)([…]) and human interleukin 10 (IL-10, Genzyme)([…]). The culture medium was supplied freshly to the cell suspension, and the mixture was further cultured for another week. The supernatant was sampled and the concentrations of IgE and IgG antibodies therein were measured by sandwich ELISA.
(§3) The ELISA was based, for the assay of IgE antibodies, on the use of rabbit anti-human IgE() antibodies (ICN) as the primary antibody and biotin-linked anti-human IgE monoclonal antibodies (G7-26, PharMingen) as the secondary antibody. For the assay of IgG antibodies, anti-human IgG monoclonal antibodies (G18-145, PharMingen) and biotin-linked donkey anti-human IgG antibodies (H+L)(Jackson) were used for the primary and secondary antibodies, respectively. For the assay of both IgE and IgG antibodies, Avidin-Biotin-Horse Radish Peroxidase (ABC kit, Vector Lab) and TMB (3,3',5,5'-tetramethylbenzidine) microwell peroxidase substrate system (Kirkegaard & Perry Laboratories Inc.) were used as the enzyme and the substrate, respectively. The assays were made by the use of conventionally known ELISA.
(§4) The inhibitory effect (%) of a given compound of this invention on the production of the antibody was calculated with respect to the concentration of the same antibody when the compound was not coexistent (refer to Uejima et al., American Academy of Allergy and Immunology, Proceedings of 1995 Annual Meeting, Program No. 818).

[2] = test system: human IgG antibodies; experiment: In vitro inhibition of human IgG antibody production (lymphocytes + IL-4 + anti CD40Ab + IL-10, ELISA); conditions: Lymphocyte, 3 μM
Description: as §1, §2, §3, §4

[3] = test system: TF (tissue factor); experiment: Inhibitory effects on the TF production in LPS-stimulated human peripheral blood monocytes; conditions: Monocyte, LPS 1 μg/ml, 16 hours
Description: Peripheral venous blood was sampled from the healthy person, and submitted to density-gradient centrifugation so that monocytes might be isolated. The monocytes thus obtained were washed with minimum essential medium (MEM, Gibco) and suspended in a culture medium (RPMI-1640(Gibco)+25 mM HEPES buffer+100 μg/ml streptomycin+100 U/ml penicillin G+2 mM L-glutamine) to give a suspension with a density of 1×10^6 cells/ml. A 0.15 ml of the cell suspension was placed onto each of the wells of a 96-well microplate, to which the compound of this invention as described in Tables 4-1 to 4-2 was added (0.05 ml of the culture medium), and the assembly was placed for 1 hour in a CO2 incubator for cultivation. Then, LPS (lipopolysaccarides, E. coli 0111B4, Difco) 1 μg/ml was added thereto, and the assembly was further cultured for 16 hours. After the supernatant being removed, the residue was washed with physiological saline, 0.1 ml of 16 mM OG (n-octyl-β-D-glucopyranoside) was added thereto, and the assembly was stirred to make TF soluble. A 0.2 ml of physiological saline was added to each residue (final dilution was […]) and this preparation was used for determination of the coagulation stimulating activity (TF-like activity). The test compound had been dissolved in DMSO to give a 0.1 M solution which was diluted with the culture medium prior to use. The final concentration of DMSO was 0.01% or less.
To each well of the microplate, 50 μl of human plasma and 50 μl of the test sample prepared as above for determination of the coagulation stimulating activity, or 50 μl of standard thromboplastin (human thromboplastin, Thromborel S, Behringwerke) were added. The microplate was incubated at 37° C. for 5 minutes, to which was added 25 mM CaCl2 (50 μl/well) containing phosphorous lipids (Platelin, Organon Teknica) at a concentration of […] to initiate coagulation. Coagulation was determined on the basis of absorption at 540 nm, and the measurement lasted 7 to 20 minutes. The data were analyzed with a data analyzing software SOFTMax (Molecular Devices) and the maximum rate time was taken as the coagulation time. The logarithmic values of the coagulation times and standard thromboplastin concentrations are plotted, and a regression parabola was drawn among the dots to give a test curve. From the curve, the inhibitory effect (%) of a given test compound on TF production was calculated. (Refer to J. Imnmunol. Methods, 133:21-29, 1990, and Proc. Natl. Acad. Sci. USA, 89:10370-10374, 1992).

Row | Compound | inhibition at 3 µM [1] | inhibition at 3 µM [2] | inhibition at 1 µM [3] | inhibition at 3 µM [3] | inhibition at 10 µM [3]
1 | COC(=O)c1ccccc1NC(=O)c1ccc(Oc2ccc3ccccc3c2)cc1 [Compound No. 1101, 2-(4-(2-naphthyloxy)benzamide)benzoic Acid Methyl Ester] | 30.3% | -2.8% | – | – | –
2 | O=C(Nc1ccccc1)c1ccc(Oc2ccc3ccccc3c2)cc1 [Compound No. 1105, N-phenyl-4-(2-naphtyloxy)benzamide] | 42.4% | -6.4% | – | – | –
3 | O=C(Nc1ccccc1O)c1ccc(Oc2ccc3ccccc3c2)cc1 [Compound No. 1106, 2-(4-(2-naphtyloxy)benzamide)phenol] | 42.6% | -25.3% | – | – | –
4 | NS(=O)(=O)c1ccccc1NC(=O)c1ccc(Oc2ccc3ccccc3c2)cc1 [Compound No. 1107, 2-(4-(2-naphtyloxy)benzamide)benzenesulfonamide] | 44.9% | -17.2% | – | – | –
5 | O=C(Nc1ccccc1-c1nnn[nH]1)c1ccc(Oc2ccc3ccccc3c2)cc1 [Compound No. 1109, 1-(4-(2-naphtyloxy)benzamide)-2-(tetrazol-5-yl)benzene] | – | – | 74.9% | 99.4% | 99.7%
6 | Nc1cc(C(=O)Nc2ccccc2C(=O)O)ccc1Oc1ccc2ccccc2c1 [Compound No. 1118, 2-(3-amino-4-(2-naphtyloxy)benzamide)benzoic Acid] | 77.2% | -12.9% | – | 86.9% | –
7 | O=C(Nc1ccccc1C(=O)O)c1ccc(Oc2ccc3cc(O)ccc3c2)cc1 [Compound No. 1202, 2-(4-(6-hydroxy-2-naphtyloxy)benzamide)benzoic Acid] | 76.6% | -8.7% | – | 33.4% | –
8 | O=C(Cc1ccc(Oc2ccc3cc(O)ccc3c2)cc1)Nc1ccccc1C(=O)O [Compound No. 1208, 2-(4-(6-hydroxy-2-naphtyloxy)phenylacetamide)benzoic Acid] | 86.2% | -8.4% | – | – | –
9 | N#Cc1ccccc1NC(=O)c1ccc(Sc2ccc3ccccc3c2)cc1 [Compound No. 3103, 2-(4-(2-naphtylthio)benzamide)benzonitrile] | 41.9% | 3.5% | – | 77.9% | –
10 | O=C(Nc1ccccc1-c1nnn[nH]1)c1ccc(Sc2ccc3ccccc3c2)cc1 [Compound No. 3104, 1-(4-(2-naphtylthio)benzamide)-2-(tetrazol-5-yl)benzene] | – | – | – | 96.9% | –
11 | O=C(Nc1ccccc1C(=O)O)c1ccc(Oc2cccc3ccccc23)cc1 [compound 1111] | 38% | 20% | -9% | 96.2% | 100%
12 | O=C(Nc1ccccc1C(=O)O)c1cccc(Oc2ccc3ccccc3c2)c1 [compound 1113] | – | – | 25.3% | 83.6% | 100%
13 | O=C(Nc1ccccc1C(=O)O)c1ccc(Oc2ccc3ccccc3c2)c([N+](=O)[O-])c1 [compound 1116] | 93% | 36.9% | – | 96.6% | –
14 | O=C(Nc1ccccc1C(=O)O)c1ccc(Oc2ccc3ccccc3c2)c(C(=O)O)c1 [compound 1120] | 19.9% | 13.6% | – | – | –
15 | O=C(Nc1ccccc1C(=O)O)c1ccc(Oc2ccc3ccccc3c2)c(C(=O)Nc2ccccc2C(=O)O)c1 [compound 1122] | 59.9% | 9.7% | – | – | –
16 | COC(=O)c1ccccc1NC(=O)Cc1ccc(Oc2ccc3ccccc3c2)cc1 [compound 1123] | 21.7% | -0.8% | – | – | –
17 | O=C(CCc1ccc(Oc2ccc3ccccc3c2)cc1)Nc1ccccc1C(=O)O [compound 1146] | – | – | – | 23.5% | –

Row | Compound | inhibition at 3 µM [1] | inhibition at 3 µM [2] | inhibition at 1 µM [3] | inhibition at 3 µM [3] | inhibition at 10 µM [3]
18 | O=C(C=Cc1ccc(Oc2ccc3ccccc3c2)cc1)Nc1ccccc1C(=O)O [compound 1148] | 25.5% | 10.3% | – | 92.9% | –
19 | CC(C(=O)Nc1ccccc1C(=O)O)c1ccc(Oc2ccc3ccccc3c2)cc1 (stereo not drawn) [compound 1150] | 64.4% | 3.3% | – | – | –
20 | COc1ccc2cc(Oc3ccc(C(=O)Nc4ccccc4C(=O)O)cc3)ccc2c1 [compound 1204] | 64% | -11.4% | 75.7% | 100% | 100%
21 | O=C(Nc1ccccc1C(=O)O)c1ccc(Oc2ccc3cc(OCc4ccccc4)ccc3c2)cc1 [compound 1206] | 84% | 11.5% | – | – | –
22 | CC(C)(C)Oc1ccc2cc(Oc3ccc(CC(=O)Nc4ccccc4C(=O)O)cc3)ccc2c1 [compound 1210] | 92.8% | 59.9% | – | – | –
23 | O=C(Cc1ccc(Oc2ccc3cc(OC4CCCCC4)ccc3c2)cc1)Nc1ccccc1C(=O)O [compound 1212] | 89.1% | 74.6% | – | – | –
24 | C=CCOc1ccc2cc(Oc3ccc(CC(=O)Nc4ccccc4C(=O)O)cc3)ccc2c1 [compound 1218] | 91.4% | 47.8% | – | – | –
25 | O=C(Cc1ccc(Oc2ccc3cc(OCc4ccccc4)ccc3c2)cc1)Nc1ccccc1C(=O)O [compound 1224] | 78.6% | 83.2% | – | – | –
26 | O=C(Cc1ccc(Oc2ccc3cc(OCc4ccc5ccccc5c4)ccc3c2)cc1)Nc1ccccc1C(=O)O [compound 1228] | 98.9% | 42.4% | – | – | –
27 | O=C(Nc1ccccc1C(=O)O)c1ccc(Sc2ccc3ccccc3c2)cc1 [compound 3102] | 19.9% | -2.8% | – | 100% | –
28 | O=C(Nc1ccccc1C(=O)O)c1ccc(Cc2ccc3ccccc3c2)cc1 [compound 4103] | 45.5% | -4.2% | 16.5% | 74.4% | 100%
29 | O=C(Nc1ccccc1C(=O)O)c1ccc(COc2ccc3ccccc3c2)cc1 [compound 5102] | – | – | 19.8% | 74.1% | 99.9%
30 | O=C(Cc1ccc(COc2ccc3ccccc3c2)cc1)Nc1ccccc1C(=O)O [compound 5104] | 51.4% | 1.6% | – | – | –
31 | O=C(Nc1ccccc1C(=O)O)c1ccc(CSc2ccc3ccccc3c2)cc1 [compound 6102] | – | – | – | 75.8% | 100%
32 | O=C(Nc1ccccc1C(=O)O)c1ccc(C(=O)c2ccc3ccccc3c2)cc1 [compound 7102] | 15.4% | 5.4% | – | 10.6% | 81.1%
33 | COC(c1ccc(C(=O)Nc2ccccc2C(=O)O)cc1)c1ccc2ccccc2c1 (stereo not drawn) [compound 8102] | 60% | 9.7% | – | – | –
